Source: patent publication US6855549B1, “Methods and compositions for increasing the infectivity of gene transfer vectors” (The University of Iowa Research Foundation, priority 1998, dated 2005)

Columns and labels:
[1] = tested on: rabbit tracheal epithelium; assay: Tracheal transepithelial voltage (Vt) in anesthetized rabbits; format: in vivo; conditions: rabbit, in vivo
Description: Rabbit studies. The transepithelial electrical potential difference across the rabbit tracheal epithelium (Vt) was measured using a modification of previously described methods (Zabner et al., 1996). The reference electrode was a subcutaneous needle connected with sterile normal saline solution to a silver/silver chloride pellet. Adult New Zealand white rabbits (n=4/group) were anesthetized with 32 mg/kg ketamine, 5.1 mg/kg xylazine and 0.8 mg/kg acepromazine intramuscularly and placed with the head in the dependent position. An exploring electrode (pediatric size 8 Teflon-coated latex double lumen Foley catheter, modified Ruseh, Inc., Duluth, Ga.) was inserted into the tracheal lumen via a tracheotomy incision. One lumen of the catheter was filled with sterile normal saline solution and was connected to a silver/silver chloride pellet. Voltage was measured with a voltmeter connected to a strip chart recorder. The catheter was then left in that position for the entire recording period. The solutions were administered through the second lumen in the following order: 1) Normal saline for 5 min; 2) Sterile water with 10 mM EGTA for 10 min; 3) Normal saline with 10 mM EGTA for 5 min; and 4) Normal saline with 10 mM EGTA plus 100 μM amiloride for 5 min. Measurements of Vt were read by two investigators who were blinded to the treatment received. There wre no discrepancies in readings of greater than 2 mV between the investigators. Disruption of epithelial junctions was assessed by detecting a fall in […] Vt after perfusion with the chelator, and by the loss of amiloride-sensitive Vt after perfusion with the chelator solution.

human nasal epithelium = assay: Nasal transepithelial voltage (Vt) in human volunteers; format: in vivo; conditions: human, in vivo
Description: Human studies. The Vt across the nasal epithelium was measured in 6 volunteers using previously described methods (Zabner et al., 1996). The protocol followed was identical to that described above for the rabbit studies. […] The catheter was then left in that position for the entire recording period. The solutions were administered through the second lumen in the following order: 1) Normal saline for 5 min; 2) Sterile water with 10 mM EGTA or 10 mM EDTA for 10 min; 3) Nommal saline with 10 mM EGTA or 10 mM EDTA for 5 min; and 4) Normal saline with 10 mM, EGTA or 10 mM EDTA plus […] amiloride for 5 min. Measurements of Vt were read by two investigators who were blinded and wvere checked by a third investigator if there was a discrepancy of more than 2 mV. Disruption of epithelial junctions was assessed by detecting a fall in nasal Vt after perfusion with the chelator, and by the loss of amiloride-sensitive Vt after perfusion with the. chelator solution.

[2] = tested on: differentiated human airway epithelial cells; format: cell-based; conditions: 5 μM AZT at addition of FIV-βgal vector/EGTA to apical surface
human airway epithelia [3] = assay: BrdU labeling of differentiated human airway epithelia; format: cell-based; conditions: for BrdU incorporation versus control epithelia: EGF 200 ng/ml, heregulin 5 nM
Description: BrdU immunohistochemistry. BrdU labeling and immunostaining was performed using a kit from Zymed Laboratories Inc. (South San Francisco, Calif.). In studies that investigate the effects of growth factors, the cells may be treated with 50-100 ng/ml growth factor for 36 h. A 1:100 dilution of the BrdU labeling reagent was added to the culture media and cells labeled for 4 hours followed by fixation in 10% neutralized Formalin. BrdU histochemistry was performed following the methods of the Zymed BrdU kit. Labeled nuclei stained brown under these conditions. Epithelial cell preparations were examined microscopically en face or in cross sections of paraffin embedded membranes and the percentage of brown staining nuclei determined. Hematoxylin or 4′,6-diamidino-2-phenylindole, dibydrochloride (DAPI) (Molecular Probes, Eugene, Oreg.) were used for counterstains.
To determine whether growth factors are mitogenic to human airway epithelia, primary cultures of cells grown at the air-liquid interface were utilized. These cultures have ion transport properties and morphology similar to the intact surface epithelium (Smith et al., 1996; Kondo et al., 1991) and after 14 days in culture the cells are well-differentiated, ciliated, and have ion transport properties similar to the intact airways (Zabner et al., 1996; Yamaya et al., 1992). […] After 24 hours of growth factor treatment, growth factor administration doubles the monolayer cell number compared to control. HGF treatment (200 ng/ml) increased cell labeling to 17-36%, while 5-10% of untreated controls were BrdU positive (n=3).

human airway epithelia [4] = assay: [3H] thymidine incorporation in primary cultures of human airway epithelia; format: cell-based; conditions: 200 ng/ml HGF
[5] = tested on: differentiated human airway epithelia; assay: Transepithelial resistance of KGF-treated airway epithelia with Ca2+ chelators; format: cell-based
Description: Differentiated epithelial cells were treated with 100 ng/ml KGF for 24 hr. Different concentrations of each calcium chelator in HEPES/HCl (pH 7.4) or in isotonic HEPES/saline (pH 7.4) buffer were mixed with vector buffer and applied to the apical surface for times as specified (Wang et al., 1998). Transepithelial resistance was measured with an Ohmmeter (EVOM; World Precision Instruments, Inc. Sarasota, Fla.) by adding cell culture media to the apical surface and the values were compared to untreated controls.
To understand whether the tonicity of the vector solution affects epithelial permeability and gene transfer efficiency, hypotonic (40 mmol/kg) or isotonic (220 mmol/kg) solutions of 6 mM EGTA, EDTA or BAPTA were added to the MuLV vector buffer and applied to the apical surface of differentiated airway epithelial cells pre-treated with KGF. At specific time intervals, transepithelial resistance (R1) was measured using an Ohmmeter.

[6] = tested on: differentiated human airway epithelia; format: cell-based

Compound: N=C(N)NC(=O)c1nc(Cl)c(N)nc1N [amiloride]
- Vt response to amiloride in control tracheas perfused with saline [1]: the anticipated fall in Vt in response to perfusion with amiloride
- nasal Vt response to amiloride in control studies (human nasal epithelium): there was a significant fall in Vt with amiloride treatment

Compound: Cc1cn([C@H]2C[C@H](N=[N+]=[N-])[C@@H](CO)O2)c(=O)[nH]c1=O [AZT, 3′-azido-3′ deoxythymidine]
- expression of vector encoded product (pseudotransduction control) [2]: showed no significant expression of vector encoded product

Compound: heregulin
- BrdU incorporation versus control epithelia (human airway epithelia [3]): increased BrdU incorporation over control epithelia

Compound: HGF: Hepatocyte growth factor, mitogen for pulmonary epithelia
- stimulation of cell division measured by [3H] thymidine incorporation (human airway epithelia [4]): 3 fold
- BrdU cell labeling (human airway epithelia [3]; HGF 200 ng/ml, untreated controls 5-10% BrdU positive, n=3): 17-36%

Compound: O=C(O)CN(CCN(CC(=O)O)CC(=O)O)CC(=O)O [EDTA]
- time required to decrease R1 to ~20% of the controls ([5]; 6 mM chelator, isotonic (220 mmol/kg)): Sixty

Compound: O [water]
- effect on proliferation ([6]; application of H2O or EGTA to epithelia, control studies): had no effect on proliferation
- epithelia expressing β-gal ([6]; pretreated with water alone, vector to mucosal surface, mean±SE, n=13): 3±0.5%

Compound: EGF: epidermal growth factor
- BrdU incorporation versus control epithelia (human airway epithelia [3]): increased BrdU incorporation over control epithelia

Compound: O=C(O)CN(CC(=O)O)c1ccccc1OCCOc1ccccc1N(CC(=O)O)CC(=O)O [BAPTA]
- fall of R1, isotonic solution ([5]; 6 mM, isotonic): quickly dropped R1, similar to the hypotonic solutions
